The source made the active and inactive calls. The rule behind the calls is not given here.
Legend:
Rattus norvegicus [1] = assay: Induction of growth hormone level in Juvenile Sprague-Dawley rat blood at 0.5 mg/kg, po administered as single dose measured after 1 hr by ELISA method (reference value: 45.2+/-12.5 ng/mL); format: functional
CHO = assay: Agonist activity at dog GHSR expressed in CHO cells at maximum concentration incubated for 60 min by FLIPR assay relative to control; format: cell-based; settings: Canis lupus familiaris, filed as agonist
[2] = Oral bioavailability in male dog at 2 mg/kg administered as single dose measured after 4 hrs; format: ADME, organism-based, Canis lupus familiaris; settings: in vivo
[3] = Agonist activity at dog GHSR expressed in CHO cells incubated for 60 min by FLIPR assay; format: cell-based; settings: 1 h
Rattus norvegicus [4] = assay: Induction of growth hormone level in Juvenile Sprague-Dawley rat blood at 0.1 mg/kg, po administered as single dose measured after 4 hrs by ELISA method (reference value: 32.5+/-4.5 ng/mL); format: functional
[5] = Half life in male monkey at 0.5 mg/kg, iv administered as single dose measured after 4 hrs; format: ADME, organism-based, Macaca mulatta; settings: rhesus monkey, in vivo
Rattus norvegicus [6] = assay: Induction of growth hormone level in adult Sprague-Dawley rat blood at 0.2 mg/kg, po administered as single dose measured immediately by ELISA method (reference value: 12.6+/-4.4 ng/mL); format: functional
[7] = Cmax in male monkey at 2 mg/kg, po administered as single dose measured after 4 hrs; format: ADME, organism-based, Macaca mulatta; settings: rhesus monkey, in vivo
[8] = Half life in male dog at 0.5 mg/kg, iv administered as single dose measured after 4 hrs; format: ADME, organism-based, Canis lupus familiaris; settings: in vivo
[9] = Toxicity in Sprague-Dawley rat assessed as effect on lymphocyte containing white pulp around central arteriole at 10 to 100 mg/kg, po administered once daily for 14 days by H&E staining based analysis; format: organism-based; settings: in vivo, 336 h, dose 10-100 mg/kg, time 14 day
Rattus norvegicus [10] = assay: Induction of growth hormone level in adult Sprague-Dawley rat blood at 0.1 mg/kg, po administered as single dose measured after 10 mins by ELISA method (reference value: 13.7+/-7.2 ng/mL); format: functional
[11] = Metabolic stability in monkey liver microsome assessed as intrinsic clearance at 1 uM measured upto 60 mins in presence of NADPH by LC-MS/MS analysis; format: ADME, Macaca mulatta; settings: rhesus monkey, liver microsomes, read-out: CLH
Cytochrome P450 1A2 = biological target: T1, Cytochrome P450 1A2 (Homo sapiens, UniProt P05177); assay: Inhibition of CYP1A2 in human liver microsome incubated for 5 min in presence of NADPH by UPLC-MS/MS analysis; format: ADME, microsomes
T1 sequence (P05177 whole entry): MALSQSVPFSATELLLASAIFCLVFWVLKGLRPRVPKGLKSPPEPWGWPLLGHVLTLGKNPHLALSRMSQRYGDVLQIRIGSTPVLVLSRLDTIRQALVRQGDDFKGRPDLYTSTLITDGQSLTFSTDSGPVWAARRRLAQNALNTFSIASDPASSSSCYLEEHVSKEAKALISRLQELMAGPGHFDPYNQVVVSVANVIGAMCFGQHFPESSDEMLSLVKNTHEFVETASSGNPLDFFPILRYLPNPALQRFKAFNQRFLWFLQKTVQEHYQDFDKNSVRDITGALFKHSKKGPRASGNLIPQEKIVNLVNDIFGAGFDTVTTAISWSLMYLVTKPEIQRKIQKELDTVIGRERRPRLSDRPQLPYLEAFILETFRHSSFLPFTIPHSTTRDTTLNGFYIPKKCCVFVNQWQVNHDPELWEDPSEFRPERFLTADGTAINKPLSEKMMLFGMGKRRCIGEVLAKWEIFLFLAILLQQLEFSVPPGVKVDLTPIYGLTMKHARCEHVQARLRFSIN

Rattus norvegicus [12] = assay: Induction of growth hormone level in Juvenile Sprague-Dawley rat blood by measuring AUC(0 to 40 mins) at 0.1 mg/kg, po administered as single dose by ELISA method (reference value: 20.2+/-4.3 ng/mL); format: functional, organism-based; settings: time 4.0 hrs
[13] = Metabolic stability in monkey liver microsome assessed as hepatic clearance at 1 uM measured upto 60 mins in presence of NADPH by LC-MS/MS analysis; format: ADME, Macaca mulatta; settings: rhesus monkey, liver microsomes, read-out: CLH
[14] = Volume of distribution in male monkey at 0.5 mg/kg, iv administered as single dose measured after 4 hrs; format: ADME, organism-based, Macaca mulatta; settings: rhesus monkey, in vivo
[15] = Tmax in male dog at 2 mg/kg, po administered as single dose measured after 4 hrs; format: ADME, organism-based, Canis lupus familiaris; settings: in vivo
[16] = Toxicity in Sprague-Dawley rat assessed as effect on hepatic cords at 10 to 100 mg/kg, po administered once daily for 14 days; format: organism-based; settings: in vivo, 336 h, dose 10-100 mg/kg, time 14 day
[17] = Half life in male mouse at 2 mg/kg, po administered as single dose measured after 4 hrs; format: ADME, organism-based; settings: in vivo
[18] = Toxicity in Sprague-Dawley rat liver assessed as change in central veins at 10 to 100 mg/kg, po administered once daily for 14 days; format: organism-based; settings: in vivo, 336 h, dose 10-100 mg/kg, time 14 day
Rattus norvegicus [19] = assay: Induction of growth hormone level in Juvenile Sprague-Dawley rat blood at 0.5 mg/kg, po administered as single dose measured after 40 mins by ELISA method (reference value: 40.1+/-11.0 ng/mL); format: functional
[20] = Metabolic stability in rat liver microsome assessed as hepatic clearance at 1 uM measured upto 60 mins in presence of NADPH by LC-MS/MS analysis; format: ADME; settings: liver microsomes, read-out: CLH
[21] = biological target: Growth hormone secretagogue receptor type 1 (Rattus norvegicus, UniProt O08725); assay: Agonist activity at rat GHSR expressed in CHO cells incubated for 60 min by FLIPR assay; format: functional, cell-based
Sequence of Growth hormone secretagogue receptor type 1 (O08725 whole entry): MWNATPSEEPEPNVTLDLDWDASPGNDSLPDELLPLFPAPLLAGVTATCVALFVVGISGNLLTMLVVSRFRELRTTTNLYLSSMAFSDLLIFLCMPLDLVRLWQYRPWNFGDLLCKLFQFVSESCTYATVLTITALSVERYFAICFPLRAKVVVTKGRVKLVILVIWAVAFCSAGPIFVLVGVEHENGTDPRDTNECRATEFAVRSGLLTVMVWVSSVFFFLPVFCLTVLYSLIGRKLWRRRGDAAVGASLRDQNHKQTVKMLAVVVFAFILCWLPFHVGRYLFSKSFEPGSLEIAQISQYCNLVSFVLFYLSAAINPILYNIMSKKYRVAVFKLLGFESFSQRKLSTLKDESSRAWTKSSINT

Rattus norvegicus [22] = assay: Induction of growth hormone level in Juvenile Sprague-Dawley rat blood by measuring AUC(0 to 40 mins) at 0.2 mg/kg, po administered as single dose by ELISA method (reference value: 20.2+/-4.3 ng/mL); format: functional, organism-based
Rattus norvegicus [23] = assay: Induction of growth hormone level in 6 week-old male Sprague-Dawley rat assessed as increase in body length at 2.5 mg/kg, po measured after 10 days; format: functional, organism-based; settings: time 10.0 day
Rattus norvegicus [24] = assay: Induction of growth hormone level in 6 week-old male Sprague-Dawley rat assessed as increase in body weight at 2.5 mg/kg, po measured after 10 days; format: functional, organism-based; settings: time 10.0 day
[25] = Metabolic stability in human liver microsome assessed as intrinsic clearance at 1 uM measured upto 60 mins in presence of NADPH by LC-MS/MS analysis; format: ADME; settings: liver microsomes, read-out: CLH
Rattus norvegicus [26] = assay: Induction of growth hormone level in Juvenile Sprague-Dawley rat blood at 0.1 mg/kg, po administered as single dose measured immediately by ELISA method (reference value: 28.5+/-8.7 ng/mL); format: functional
[27] = Clearance in male Sprague-Dawley rat plasma at 1 mg/kg, iv administered as single dose measured after 4 hrs; format: ADME, organism-based
[28] = Clearance in male mouse plasma at 1 mg/kg, iv administered as single dose measured after 4 hrs; format: ADME, organism-based
[29] = Half life in male dog at 2 mg/kg, po administered as single dose measured after 4 hrs; format: ADME, organism-based, Canis lupus familiaris; settings: in vivo
Rattus norvegicus [30] = assay: Induction of growth hormone level in adult Sprague-Dawley rat blood at 0.5 mg/kg, po administered as single dose measured after 40 mins by ELISA method (reference value: 14.4+/-6.9 ng/mL); format: functional

With CC(C)(N)C(=O)N[C@H](COCc1ccccc1)C(=O)N1CCC2=NN(C3CC3)C(=O)[C@]2(Cc2ccccc2)C1 the Activity (Rattus norvegicus [1]) was 27.2 ng/mL, the Activity (CHO) was 124% and the bioavailability [2] was 43.6%. The EC50 [3] was 0.043 nM, the Activity (Rattus norvegicus [4]) was 41.4 ng/mL and the half-life [5] was 46.8 min. For the same molecule, the Activity (Rattus norvegicus [6]) was 22 ng/mL, the Cmax [7] was 0.0434 µg/mL and the half-life [8] was 56.4 min. For the same molecule, the Activity [9] was “Non-toxic”, the Activity (Rattus norvegicus [10]) was 216.1 ng/mL and the microsomal CLint at 1 µM [11] was 451 µL/min/mg. It also gave an IC50 (Cytochrome P450 1A2) greater than 30000 nM, an AUC (Rattus norvegicus [12]) of 109 ng·h/mL and a CLint scaled at 1 µM [13] of 32.5 L/h/kg. The Vd [14] was 2.36 L/kg, the Tmax [15] was 25.2 min and the Activity [16] was “Non-toxic”. The half-life [17] was 91.2 min, the Activity [18] was “Non-toxic” and the Activity (Rattus norvegicus [19]) was 74.6 ng/mL. The CLint scaled at 1 µM [20] was 20.5 L/h/kg, the EC50 [21] was 0.007 nM and the AUC (Rattus norvegicus [22]) was 102 ng·h/mL. The Activity (Rattus norvegicus [23]) was “Active”, the Activity (Rattus norvegicus [24]) was “Active” and the microsomal CLint at 1 µM [25] was 123 µL/min/mg. The Activity (Rattus norvegicus [26]) was 31.1 ng/mL, the clearance [27] was 1.74 L/h/kg and the clearance [28] was 7.41 L/h/kg. For the same molecule, the half-life [29] was 71.4 min and the Activity (Rattus norvegicus [30]) was 27.8 ng/mL.
